# Laboratory results from patent publication US20230059136A1, “THE COMPOUNDS AND COMPOSITIONS FOR TREATING CONDITIONS ASSOCIATED WITH NLRP ACTIVITY” (Novartis AG, priority 2018, published 2023).
# Tested on: IL-1β production in PMA-differentiated THP-1 cells
# Assay: IL-1β production in PMA-differentiated THP-1 cells stimulated with gramicidin (hTHP-1 assay containing 2% fetal bovine serum)
# Assay type: cell-based, human
# Settings: Homo sapiens, THP-1, Table B1; 2% fetal bovine serum; cells printed as numeric bound; read-out: hTHP-1 IC50 (Average IC50 of compounds in hTHP-1 assay)
# Outline: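 THP-1 cells were differentiated with PMA 20 ng/ml for 16-18 h, then plated at 50,000 cells/well in RPMI with 2% FBS. They were preincubated 1 h with compound (100–0.0017 μM final, 0.37% DMSO), then stimulated with gramicidin 5 μM for 2 h. Supernatant IL-1β was measured by HTRF.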
row,IC50 [µM],Structure (SMILES)
1,> 30,"CC(C)c1cc2c(c(C(C)C)c1CC(=O)N=[S@@](N)(=O)c1cnc(C(C)(C)O)s1)COC2(C)C [Example 340, (R)-N-(amino(2-(2-hydroxypropan-2-yl)thiazol-5-yl)(oxo)-λ^6-sulfaneylidene)-2-(4,6-diisopropyl-1,1-dimethyl-1,3-dihydroisobenzofuran-5-yl)acetamide]"

# Same assay, conditions: Homo sapiens, THP-1, Table B1; 2% fetal bovine serum; class symbols; read-out: hTHP-1 IC50 (Average IC50 of compounds in hTHP-1 assay)
row,IC50 [µM],Structure (SMILES)
1,5 to 30,"CC(C)c1cc2c(c(C(C)C)c1CC(=O)N=S(N)(=O)c1cnc(C(C)(C)O)s1)COC2=O (stereo not shown) [Example 256, N-(amino(2-(2-hydroxypropan-2-yl)thiazol-5-yl) (oxo)-λ^6-sulfaneylidene)-2-(4,6-diisopropyl-1-oxo-1,3-dihydroisobenzofuran-5-yl)acetamide]"
2,1 to 5,"CC(C)c1cc(C(F)F)cc(C(C)C)c1CC(=O)N=S(N)(=O)c1ccc(CN(C)C)cc1 (stereo not shown) [Example 257, N-(amino(4-((dimethylamino)methyl)phenyl) (oxo)-λ^6-sulfaneylidene)-2-(4-(difluoromethyl)-2,6-diisopropylphenyl)acetamide]"
3,1 to 5,"CC(C)c1cc(C(F)F)nc(C(C)C)c1CC(=O)N=S(N)(=O)c1ccc(CN(C)C)cc1 (stereo not shown) [Example 258, N-(amino(4-((dimethylamino)methyl)phenyl) (oxo)-λ^6-sulfaneylidene)-2-(6-(difluoromethyl)-2,4-diisopropylpyridin-3-yl)acetamide]"
4,5 to 30,"CCc1c2c(cc(C(C)C)c1CC(=O)N=S(N)(=O)c1cnc(C(C)(C)O)s1)COC2 (stereo not shown) [Example 259, N-(amino(2-(2-hydroxypropan-2-yl)thiazol-5-yl)(oxo)-λ^6-sulfaneylidene)-2-(4-ethyl-6-isopropyl-1,3-dihydroisobenzofuran-5-yl)acetamide]"
5,5 to 30,"CCc1cc2c(c(C(C)C)c1CC(=O)N=S(N)(=O)c1cnc(C(C)(C)O)s1)COC2 (stereo not shown) [Example 260, N-(amino(2-(2-hydroxypropan-2-yl)thiazol-5-yl)(oxo)-λ^6-sulfaneylidene)-2-(6-ethyl-4-isopropyl-1,3-dihydroisobenzofuran-5-yl)acetamide]"
6,5 to 30,"CC(C)c1cc2c(cnn2C)c(C(C)C)c1CC(=O)N=S(N)(=O)c1cnc(C(C)(C)O)s1 (stereo not shown) [Example 262, N-(amino(2-(2-hydroxypropan-2-yl)thiazol-5-yl)(oxo)-λ^6-sulfaneylidene)-2-(4,6-diisopropyl-1-methyl-1H-indazol-5-yl)acetamide]"
7,1 to 5,"CCc1cc2c(c(C(C)C)c1CC(=O)N=S(N)(=O)c1sc(C(C)(C)O)cc1F)COC2 (stereo not shown) [Example 263, N-(amino(3-fluoro-5-(2-hydroxypropan-2-yl)thiophen-2-yl)(oxo)-λ^6-sulfaneylidene)-2-(6-ethyl-4-isopropyl-1,3-dihydroisobenzofuran-5-yl)acetamide]"
8,0.2 to 1,"CCc1c2c(cc(C(C)C)c1CC(=O)N=S(N)(=O)c1sc(C(C)(C)O)cc1F)COC2 (stereo not shown) [Example 264, N-(amino(3-fluoro-5-(2-hydroxypropan-2-yl)thiophen-2-yl)(oxo)-λ^6-sulfaneylidene)-2-(4-ethyl-6-isopropyl-1,3-dihydroisobenzofuran-5-yl)acetamide]"
9,1 to 5,"CC(C)c1cc2c(c(C(C)C)c1CC(=O)N=S(N)(=O)c1cccc(C(C)(C)O)c1)COC2 (stereo not shown) [Example 266, N-(amino (3-(2-hydroxypropan-2-yl)phenyl)(oxo)-λ^6-sulfaneylidene)-2-(4,6-diisopropyl-1,3-dihydroisobenzofuran-5-yl)acetamide]"
10,5 to 30,"CC(C)c1cc2c(c(C(C)C)c1CC(=O)N=S(N)(=O)c1cnn3c1OCCC3)COC2 (stereo not shown) [Example 267, N-(amino(6,7-dihydro-5H-pyrazolo[5,1-b][1,3]oxazin-3-yl)(oxo)-λ^6-sulfaneylidene)-2-(4,6-diisopropyl-1,3-dihydroisobenzofuran-5-yl)acetamide]"
11,1 to 5,"CC(C)c1ccc(F)c(C(C)C)c1CC(=O)N=S(N)(=O)c1cnn2c1OCCC2 (stereo not shown) [Example 268, N-(amino(6,7-dihydro-5H-pyrazolo[5,1b][1,3]oxazin-3-yl)(oxo)-λ^6-sulfaneylidene)-2-(3-fluoro-2,6-diisopropylphenyl)acetamide]"
12,0.2 to 1,"CC(C)c1cc(F)cc(C(C)C)c1CC(=O)N=[S@](=O)(NC#N)c1ncc(C(C)(C)O)s1 [Example 341, (S)—N-(cyanamido(5-(2-hydroxypropan-2-yl)thiazol-2-yl)(oxo)-λ^6-sulfaneylidene)-2-(4-fluoro-2,6-diisopropylphenyl)acetamide]"
13,1 to 5,"CC(C)c1cc(F)cc(C(C)C)c1CC(=O)N=[S@@](=O)(NC#N)c1ncc(C(C)(C)O)s1 [Example 342, (R)-N-(cyanamido(5-(2-hydroxypropan-2-yl)thiazol-2-yl)(oxo)-λ^6-sulfaneylidene)-2-(4-fluoro-2,6-diisopropylphenyl)acetamide]"
14,5 to 30,"CC(C)c1cc(-c2ccc3ccccc3c2)cc(C(C)C)c1CC(=O)N=[S@](=O)(NC#N)c1cnc(C(C)(C)O)s1 [Example 345, (S)-N-(cyanamido(2-(2-hydroxypropan-2-yl)thiazol-5-yl)(oxo)-λ^6-sulfaneylidene)-2-(2,6-diisopropyl-4-(naphthalen-2-yl)phenyl)acetamide]"
15,0.2 to 1,"CC(C)c1cc(-c2ccc3ccccc3c2)cc(C(C)C)c1CC(=O)N=[S@@](=O)(NC#N)c1cnc(C(C)(C)O)s1 [Example 346, (R)-N-(cyanamido(2-(2-hydroxypropan-2-yl)thiazol-5-yl)(oxo)-λ^6-sulfaneylidene)-2-(2,6-diisopropyl-4-(naphthalen-2-yl)phenyl)acetamide]"

# Same assay, conditions: Homo sapiens, THP-1, Table B2; 2% fetal bovine serum; cells printed as numeric bound; read-out: hTHP-1 IC50 (Average IC50 of compounds in hTHP-1 assay)
row,IC50 [µM],Structure (SMILES)
1,> 30,"COc1cc(-c2cccc(C(C)C)c2CC(=O)N=S(=O)(NC(N)=O)c2cnc([C@@](C)(O)CO)s2)ccn1 (stereo partly drawn) [Example 354, N-((2-((S)-1,2-dihydroxypropan-2-yl)thiazol-5-yl)(oxo)(ureido)-λ^6-sulfaneylidene)-2-(2-isopropyl-6-(2-methoxypyridin-4-yl)phenyl)acetamide]"
2,> 30,CC(C)c1cc(C#N)cc(C(C)C)c1CC(=O)N=[S@](=O)(NC#N)c1ncc(C(C)(C)O)s1 [Example 365]

# Same assay, conditions: Homo sapiens, THP-1, Table B2; 2% fetal bovine serum; class symbols; read-out: hTHP-1 IC50 (Average IC50 of compounds in hTHP-1 assay)
row,IC50 [µM],Structure (SMILES)
1,1 to 5,"CC(C)c1cc2c(c(C(C)C)c1CC(=O)N=S(N)(=O)c1ccn(CCO)n1)OC(F)(F)O2 (stereo not shown) [Example 347, N-(amino(1-(2-hydroxyethyl)-1H-pyrazol-3-yl)(oxo)-λ^6-sulfaneylidene)-2-(2,2-difluoro-4,6-diisopropylbenzo[d][1,3]dioxol-5-yl)acetamide]"
2,0.2 to 1,"CC(C)c1cc(C#N)c(F)c(C(C)C)c1CC(=O)N=S(N)(=O)c1cnc(C(O)(CO)CO)s1 (stereo not shown) [Example 350, N-(amino(oxo)(2-(1,2,3-trihydroxypropan-2-yl)thiazol-5-yl)-λ^6-sulfaneylidene)-2-(4-cyano-3-fluoro-2,6-diisopropylphenyl)acetamide]"
3,5 to 30,"CC(C)c1cc(C#N)c(F)c(C(C)C)c1CC(=O)N=S(=O)(NC#N)c1cnc(C(O)(CO)CO)s1 (stereo not shown) [Example 360, N-(cyanamido(oxo)(2-(1,2,3-trihydroxypropan-2-yl)thiazol-5-yl)-λ^6-sulfaneylidene)-2-(4-cyano-3-fluoro-2,6-diisopropylphenyl)acetamide]"
4,1 to 5,"CC(C)c1cc2c(c(C(C)C)c1CC(=O)N=[S@](=O)(NC#N)c1cnc(C(C)(C)O)s1)COC2=O [Example 361, (S)-N-(cyanamido(2-(2-hydroxypropan-2-yl)thiazol-5-yl) (oxo)-λ^6-sulfaneylidene)-2-(4,6-diisopropyl-1-oxo-1,3-dihydroisobenzofuran-5-yl)acetamide]"
5,1 to 5,"CC(C)(O)c1ncc([S@@](=O)(=NC(=O)Cc2c3c(cc4c2CC4)CCC3)NC#N)s1 [Example 362, (R)-N-(cyanamido(2-(2-hydroxypropan-2-yl)thiazol-5-yl) (oxo)-λ^6-sulfaneylidene)-2-(2,4,5,6-tetrahydro-1H-cyclobuta [f]inden-3-yl)acetamide]"
6,0.2 to 1,"CC(C)(O)c1ncc([S@](=O)(=NC(=O)Cc2c3c(cc4c2CC4)CCC3)NC#N)s1 [Example 363, (S)-N-(cyanamido(2-(2-hydroxypropan-2-yl)thiazol-5-yl) (oxo)-λ^6-sulfaneylidene)-2-(2,4,5,6-tetrahydro-1H-cyclobuta [f]inden-3-yl)acetamide]"
7,0.2 to 1,"CC(C)c1cc(C#N)cc(C(C)C)c1CC(=O)N=[S@@](=O)(NC#N)c1ncc(C(C)(C)O)s1 [Example 364, (R)-N-(cyanamido(5-(2-hydroxypropan-2-yl)thiazol-2-yl) (oxo)-λ^6-sulfaneylidene)-2-(4-cyano-2,6-diisopropylphenyl) acetamide]"
8,5 to 30,"CC(C)c1cc(C#N)cc(C(C)C)c1CC(=O)N=[S@@](=O)(NC#N)c1sc(C(C)(C)O)nc1CO [Example 366, (R)-N-(cyanamido(4-(hydroxymethyl)-2-(2-hydroxypropan-2-yl)thiazol-5-yl)(oxo)-λ^6-sulfaneylidene)-2-(4-cyano-2,6-diisopropylphenyl)acetamide]"
9,0.04 to 0.2,"CC(C)c1cc(F)cc(C(C)C)c1CC(=O)N=[S@@](=O)(NC#N)c1sc(C(C)(C)O)nc1CO [Example 368, (R)-N-(cyanamido(4-(hydroxymethyl)-2-(2-hydroxypropan-2-yl)thiazol-5-yl)(oxo)-λ^6-sulfaneylidene)-2-(4-fluoro-2,6-diisopropylphenyl)acetamide]"
10,5 to 30,"CC(C)c1cc(F)cc(C(C)C)c1CC(=O)N=[S@](=O)(NC#N)c1sc(C(C)(C)O)nc1CO [Example 369, (S)-N-(cyanamido(4-(hydroxymethyl)-2-(2-hydroxypropan-2-yl)thiazol-5-yl)(oxo)-λ^6-sulfaneylidene)-2-(4-fluoro-2,6-diisopropylphenyl)acetamide]"
